# Columns and labels:
# PAK1 [1] = settings: cited from earlier work
# [2] = system: RAS transformation of cells; settings: in vitro and in vivo (b6); malignant transformation of cells (b7); cited from earlier work
# PAK1 [3] = assay: PAK kinase assay on PAK1 immunoprecipitated from AG879-treated RAS cells; assay type: cell-based; settings: RAS cells serum starved, AG879 0.01-10 μM for 1 hour; all concentrations tested
# Procedure: RAS cells, which are NIH 3T3 fibroblasts transformed with v-Ha-RAS, were serum starved, overnight, and were then incubated with varying concentrations of AG879 (0.01-10 μM), for 1 hour. Following the hour of culture, the cells were lysed in lysis buffer (40 mM HEPES, pH 7.4, 1% Nonidet P-40, 1 mM EDTA, 100 mM NaCl, 25 mM NaF, 100 μM NaVO3, 1 MM phenylmethyl sulfonyl fluoride, and 100 units/ml aprotonin). Lysates were tested, via Bradford assay, to determine protein content, and those containing 1 mg of protein were admixed with an anti-PAK1 antibody to immunoprecipitate proteins.
# Once the proteins were immunoprecipitated, they were analyzed in a PAK kinase assay, as described by Tang, et. al., Mol. Cell Biol 17: 4454-4464 (1997); He, et. al., Cancer J. 7:191-202 (2001), He, et. al., Cancer J 6:243-248 (2000); Obemeier, et. al., EMBO J 17:4328-4339 (1998), all of which are incorporated by reference.
# GST-PAK1 = GST-PAK1 (Homo sapiens, UniProt Q13153); assay: Kinase assay with fusion protein GST-PAK1; assay type: biochemical; settings: even at 10 μM
# Procedure: In follow up experiments a fusion protein “GST-PAK1” was prepared, and tested in the same way.
# [4] = system: RAS cells (NIH 3T3 fibroblasts transformed with v-Ha-RAS); assay: Colony formation of RAS cells in 0.35% top agar, 3 weeks; assay type: cell-based; settings: colonies containing more than 100 cells, average of two experiments, read-out: IC50 for large colony formation
# Source text: After three weeks, the colonies were stained, and counted, using standard methods. The control used was non-treated cells, plated into the same type of medium.
# RAS cells = assay: Anchorage dependent growth, follow up experiments; assay type: cell-based; settings: as much as 1 μM
# Source text: The experiments which follow were designed to address this question.
# ETK-PAK1 association = target: T1, ETK-PAK1 association (Mus musculus, UniProt P97504); assay: ETK-PAK1 association in AG879-treated RAS cells; assay type: cell-based; settings: 10 nM
# T1 construct: RAS cells were again lysed and immunoprecipitated with an anti-ETK antibody; endogenous in cells; host or cells: RAS cells (v-Ha-RAS transformed NIH 3T3 fibroblasts)
# T1 sequence (P97504 1-651): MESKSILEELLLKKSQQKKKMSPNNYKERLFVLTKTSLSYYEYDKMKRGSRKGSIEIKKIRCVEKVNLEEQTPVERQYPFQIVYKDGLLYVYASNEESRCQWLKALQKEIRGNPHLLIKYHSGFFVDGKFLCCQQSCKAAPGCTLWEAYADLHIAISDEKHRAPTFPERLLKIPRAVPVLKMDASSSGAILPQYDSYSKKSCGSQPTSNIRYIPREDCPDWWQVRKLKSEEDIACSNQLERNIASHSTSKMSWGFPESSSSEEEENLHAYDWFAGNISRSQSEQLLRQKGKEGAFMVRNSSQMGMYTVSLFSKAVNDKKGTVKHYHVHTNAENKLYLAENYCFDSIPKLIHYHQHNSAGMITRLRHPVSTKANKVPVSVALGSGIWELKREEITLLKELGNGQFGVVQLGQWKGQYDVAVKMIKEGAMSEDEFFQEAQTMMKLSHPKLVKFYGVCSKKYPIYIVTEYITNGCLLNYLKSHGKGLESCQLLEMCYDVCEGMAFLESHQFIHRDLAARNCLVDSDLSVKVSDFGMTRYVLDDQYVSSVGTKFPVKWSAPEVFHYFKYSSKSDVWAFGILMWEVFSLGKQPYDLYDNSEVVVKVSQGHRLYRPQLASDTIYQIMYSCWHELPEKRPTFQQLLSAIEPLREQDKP
# Procedure: (§1) Experiments were designed to determine if AG879 affected the Tyr activity of ETK. To do so, serum starved RAS cells were treated, with varying concentrations of AG879 for 1 hour. Cell lysates were prepared using, as lysis buffer, 20 mM Tris-HCl (pH 7.5), 100 mM NaCl, 10% glycerol, 1% Nonidet P-40, 10 mM NaF, 100 μM NaVO3, 1 mM phenylmethylsulfonyl fluoride, and 100 units/ml of aprotonin. Lysates were treated either with a rabbit, anti-ETK antibody, as an anti-phospo Tyr antibody, to immunoprecipitate the enzyme, and an ETK kinase assay was performed, in accordance with Chen, et. al., Nat. Cell Biol. 3:439-444 (2001); and Bagheri-Yarmand, et. al., supra, both of which are incorporated by reference. Endogenous PAK1, associated with ETK was used as a substrate, in either the absence, or varying concentrations of AG879.
# PAK1 [5] = assay: Tyr phosphorylation of PAK1 in AG879-treated RAS cells; assay type: cell-based; settings: 10 nM
# Procedure: as §1
# TEC = target: T2, TEC (Homo sapiens, UniProt P42680); assay: In vitro kinase assay, TEC family member TEC; assay type: biochemical; settings: concentration as high as 10 μM
# T2 sequence (P42680 1-631): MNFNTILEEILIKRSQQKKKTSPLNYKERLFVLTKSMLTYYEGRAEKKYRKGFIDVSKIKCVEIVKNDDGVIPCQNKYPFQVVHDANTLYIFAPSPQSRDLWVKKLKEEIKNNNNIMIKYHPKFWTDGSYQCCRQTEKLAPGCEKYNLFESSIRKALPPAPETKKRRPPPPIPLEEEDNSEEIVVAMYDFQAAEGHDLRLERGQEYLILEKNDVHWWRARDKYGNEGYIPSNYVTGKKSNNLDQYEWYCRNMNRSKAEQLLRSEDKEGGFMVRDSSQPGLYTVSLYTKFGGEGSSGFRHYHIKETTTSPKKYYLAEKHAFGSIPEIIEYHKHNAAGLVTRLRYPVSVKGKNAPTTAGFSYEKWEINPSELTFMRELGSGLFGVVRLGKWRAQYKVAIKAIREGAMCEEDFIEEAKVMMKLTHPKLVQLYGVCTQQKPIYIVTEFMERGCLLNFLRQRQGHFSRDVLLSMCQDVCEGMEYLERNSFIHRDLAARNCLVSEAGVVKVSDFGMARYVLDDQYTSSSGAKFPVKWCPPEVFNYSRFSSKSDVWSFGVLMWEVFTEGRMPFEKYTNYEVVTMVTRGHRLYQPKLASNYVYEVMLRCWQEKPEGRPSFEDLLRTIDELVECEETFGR
# BTK = BTK (Homo sapiens, UniProt Q06187); assay: In vitro kinase assay, TEC family member BTK; assay type: biochemical; settings: concentration as high as 10 μM
# ITK = target: T3, ITK (Homo sapiens, UniProt Q08881); assay: In vitro kinase assay, TEC family member ITK; assay type: biochemical; settings: concentration as high as 10 μM
# T3 sequence (Q08881 1-620): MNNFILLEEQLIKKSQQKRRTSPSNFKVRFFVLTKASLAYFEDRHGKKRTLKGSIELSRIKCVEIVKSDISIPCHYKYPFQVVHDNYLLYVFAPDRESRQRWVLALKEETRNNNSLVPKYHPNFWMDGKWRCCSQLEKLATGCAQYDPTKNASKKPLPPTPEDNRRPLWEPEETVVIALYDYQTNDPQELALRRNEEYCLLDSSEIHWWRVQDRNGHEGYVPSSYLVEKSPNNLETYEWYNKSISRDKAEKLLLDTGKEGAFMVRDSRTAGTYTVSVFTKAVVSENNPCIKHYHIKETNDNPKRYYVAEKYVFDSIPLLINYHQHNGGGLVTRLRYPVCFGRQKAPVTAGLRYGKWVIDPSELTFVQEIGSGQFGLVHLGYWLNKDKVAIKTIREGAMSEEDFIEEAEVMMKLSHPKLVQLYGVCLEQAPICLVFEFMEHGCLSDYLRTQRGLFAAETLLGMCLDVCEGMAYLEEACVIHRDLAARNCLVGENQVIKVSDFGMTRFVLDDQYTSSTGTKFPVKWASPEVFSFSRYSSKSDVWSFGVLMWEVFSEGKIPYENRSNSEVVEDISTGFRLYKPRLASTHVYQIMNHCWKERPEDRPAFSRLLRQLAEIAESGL
# FAK = target: T4, FAK (Mus musculus, UniProt P34152); assay: Tyr phosphorylation of FAK in RAS cells (anti-FAK immunoprecipitation, blot); assay type: cell-based
# T4 construct: RAS cells were again serum starved, lysed, and immunoprecipitated using an anti-FAK antibody; endogenous in cells; host or cells: RAS cells (v-Ha-RAS transformed NIH 3T3 fibroblasts)
# Source text: (§2) In order to determine this, RAS cells were again serum starved, lysed, and immunoprecipitated using an anti-FAK antibody. The precipitates were then blotted, using either anti-phospo Tyr, anti-ETK, or anti-PAK1 antibodies, separately.
# FAK-ETK interaction = target: T5, FAK-ETK interaction (Mus musculus, UniProt P97504); assay: FAK association with ETK in RAS cells; assay type: cell-based
# T5 construct: blotted, using either anti-phospo Tyr, anti-ETK, or anti-PAK1 antibodies; endogenous in cells; host or cells: RAS cells (v-Ha-RAS transformed NIH 3T3 fibroblasts)
# T5 sequence (P97504 1-651): T1 sequence (P97504 1-651)
# Source text: as §2
# FAK-PAK1 interaction = FAK-PAK1 interaction in RAS cells; assay type: cell-based; settings: 10 nM
# Source text: as §2
# RAS induced sarcomas = settings: nude mouse model; cited from earlier work
# ErbB2 = ErbB2 (Homo sapiens, UniProt P04626); settings: cited from earlier work
# FLK-1 = settings: cited from earlier work
# ETK [6] = target: T6, ETK (Mus musculus, UniProt P97504); assay: Tyrosine phosphorylation of ETK in AG879-treated RAS cells (immunoprecipitation); assay type: cell-based; design: endogenous in cells; host or cells: RAS cells (v-Ha-RAS transformed NIH 3T3 fibroblasts); settings: 1 hour
# T6 sequence (P97504 1-651): T1 sequence (P97504 1-651)
# Procedure: as §1
# ETK [7] = target: T6, ETK; assay: In vitro kinase assay with ETK immunoprecipitated from RAS cells; assay type: biochemical; design: RAS cells were again lysed and immunoprecipitated with an anti-ETK antibody; endogenous in cells; host or cells: RAS cells (v-Ha-RAS transformed NIH 3T3 fibroblasts)
# Procedure: These experiments were designed to determined how AG879 inhibited ETK activity, i.e., was the inhibition direct, or indirect? To test this, RAS cells were again lysed and immunoprecipitated with an anti-ETK antibody, as described supra. Following this, the immunoprecipitates were used in an in vitro kinase assay, using no, or varying concentrations, of AG879 (0.001-10 μM), as described supra. Two, independent experiments, were carried out.
# T4 sequence (P34152 whole entry): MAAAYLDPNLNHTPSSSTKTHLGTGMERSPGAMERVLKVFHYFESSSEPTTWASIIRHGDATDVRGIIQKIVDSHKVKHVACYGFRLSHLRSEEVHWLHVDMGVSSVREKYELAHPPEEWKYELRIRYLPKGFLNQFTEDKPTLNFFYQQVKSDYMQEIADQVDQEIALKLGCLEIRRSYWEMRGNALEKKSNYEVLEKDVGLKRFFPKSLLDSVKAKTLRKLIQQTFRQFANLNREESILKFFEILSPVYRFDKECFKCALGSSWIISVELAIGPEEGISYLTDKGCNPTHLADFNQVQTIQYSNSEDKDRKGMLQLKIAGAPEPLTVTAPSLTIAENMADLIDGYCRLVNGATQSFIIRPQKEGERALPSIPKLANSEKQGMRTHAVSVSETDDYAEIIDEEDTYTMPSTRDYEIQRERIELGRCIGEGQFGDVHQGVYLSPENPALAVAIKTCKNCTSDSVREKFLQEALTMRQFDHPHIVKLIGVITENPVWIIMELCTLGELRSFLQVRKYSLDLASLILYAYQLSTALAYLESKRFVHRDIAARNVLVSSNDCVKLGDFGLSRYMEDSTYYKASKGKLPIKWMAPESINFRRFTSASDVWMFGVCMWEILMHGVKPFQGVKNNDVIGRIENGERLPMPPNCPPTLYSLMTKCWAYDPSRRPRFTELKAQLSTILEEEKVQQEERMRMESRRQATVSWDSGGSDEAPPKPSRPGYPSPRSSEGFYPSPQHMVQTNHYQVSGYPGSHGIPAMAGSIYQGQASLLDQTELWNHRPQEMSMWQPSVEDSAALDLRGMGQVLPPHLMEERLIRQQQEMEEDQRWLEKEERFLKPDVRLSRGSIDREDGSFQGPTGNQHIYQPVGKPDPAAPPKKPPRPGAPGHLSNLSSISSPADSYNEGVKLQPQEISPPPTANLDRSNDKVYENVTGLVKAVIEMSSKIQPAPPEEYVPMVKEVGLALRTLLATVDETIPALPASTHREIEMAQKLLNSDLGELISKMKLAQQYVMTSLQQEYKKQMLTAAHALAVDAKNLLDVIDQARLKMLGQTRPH
# Sequence of BTK (Q06187 whole entry, species assumed): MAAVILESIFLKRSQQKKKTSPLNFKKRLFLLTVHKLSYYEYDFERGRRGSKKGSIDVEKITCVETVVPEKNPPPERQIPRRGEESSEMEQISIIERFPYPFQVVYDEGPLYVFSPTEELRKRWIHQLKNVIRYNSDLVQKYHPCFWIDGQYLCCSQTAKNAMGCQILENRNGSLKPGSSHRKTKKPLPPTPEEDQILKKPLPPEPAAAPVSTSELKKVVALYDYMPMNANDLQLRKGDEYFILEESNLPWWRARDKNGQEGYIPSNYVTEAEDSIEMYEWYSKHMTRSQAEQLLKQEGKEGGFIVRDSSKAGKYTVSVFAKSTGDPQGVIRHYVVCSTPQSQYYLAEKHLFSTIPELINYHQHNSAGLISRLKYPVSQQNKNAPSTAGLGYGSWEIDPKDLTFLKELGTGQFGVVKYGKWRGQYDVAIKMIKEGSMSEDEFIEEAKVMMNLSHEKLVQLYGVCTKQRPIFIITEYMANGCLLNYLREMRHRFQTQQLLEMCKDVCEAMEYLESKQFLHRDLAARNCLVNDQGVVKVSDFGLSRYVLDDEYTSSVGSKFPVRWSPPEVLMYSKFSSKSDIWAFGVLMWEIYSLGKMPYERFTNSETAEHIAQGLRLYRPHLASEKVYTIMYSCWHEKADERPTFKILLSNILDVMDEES
# Sequence of GST-PAK1 (Q13153 whole entry, the tested form may be a part): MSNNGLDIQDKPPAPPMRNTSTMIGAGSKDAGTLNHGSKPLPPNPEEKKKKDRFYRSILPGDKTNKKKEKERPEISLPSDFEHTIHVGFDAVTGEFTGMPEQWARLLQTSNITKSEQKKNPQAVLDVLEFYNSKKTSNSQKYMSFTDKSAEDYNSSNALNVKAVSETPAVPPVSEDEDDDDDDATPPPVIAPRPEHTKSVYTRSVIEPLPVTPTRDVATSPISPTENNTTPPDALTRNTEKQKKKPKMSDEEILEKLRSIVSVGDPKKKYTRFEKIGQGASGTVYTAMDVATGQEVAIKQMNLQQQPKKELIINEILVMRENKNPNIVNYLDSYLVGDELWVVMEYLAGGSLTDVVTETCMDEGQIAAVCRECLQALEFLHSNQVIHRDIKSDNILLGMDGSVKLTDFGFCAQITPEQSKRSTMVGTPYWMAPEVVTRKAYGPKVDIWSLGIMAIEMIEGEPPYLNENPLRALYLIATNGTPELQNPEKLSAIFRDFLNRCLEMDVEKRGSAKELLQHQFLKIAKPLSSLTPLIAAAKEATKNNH
compound,measurement,setting,value
COc1cc(/C=C(\C#N)C(N)=O)cc(CSc2nc3ccccc3s2)c1O [AG825],RAS induced PAK1 activation,PAK1 [1],block
same,IC50,"PAK1 [1]; read-out: IC50, block of RAS induced activation of PAK1 and malignant transformation",~350 nM
same,RAS induced transformation,[2],block
COc1cc2ncnc(Nc3cccc(Cl)c3)c2cc1OC [AG1478],RAS induced PAK1 activation,PAK1 [1],block
same,RAS induced transformation,[2],block
Cc1ccc(-c2nn(C(C)(C)C)c3ncnc(N)c23)cc1 [PP1],RAS induced PAK1 activation,PAK1 [1],block
same,RAS induced transformation,[2],block
AG879,PAK1 kinase activity,PAK1 [3],blocked quite strongly
same,inhibition of kinase properties of GST-PAK1,GST-PAK1,did not inhibit
same,IC50,[4],~10 nM
same,effect on anchorage dependent growth,RAS cells,did not effect
same,ETK-PAK1 association,ETK-PAK1 association,suppress
same,Tyr phosphorylation of PAK1,PAK1 [5],reduced
same,inhibitory effect on TEC,TEC,no inhibitory effect
same,inhibitory effect on BTK,BTK,no inhibitory effect
same,inhibitory effect on ITK,ITK,no inhibitory effect
same,Tyr phosphorylation of FAK,FAK; 10 nM,not at the lower concentration
same,Tyr phosphorylation of FAK,FAK; 100 nM,suppressed
same,FAK association with ETK,FAK-ETK interaction; 10 nM,not at the lower concentration
same,FAK association with ETK,FAK-ETK interaction; 100 nM,suppressed
same,FAK-PAK1 interaction,FAK-PAK1 interaction,inhibit
same,growth of RAS induced sarcomas in vivo,RAS induced sarcomas,suppressed
same,ErbB2 inhibition,ErbB2,inhibitor
same,FLK-1 inhibition,FLK-1,inhibitor
same,tyrosine phosphorylation of ETK,ETK [6]; 10 nM,inhibited
same,level of the ETK protein,ETK [6],did not affect
same,Tyr phosphorylation of ETK,"ETK [7]; 10 nM, ETK immunoprecipitate",inhibited
same,Tyr phosphorylation of PAK1 by ETK,"ETK [7]; 10 nM, ETK immunoprecipitate",inhibited
same,IC50,"ETK [7]; AG879 0.001-10 μM, two independent experiments",~5 nM

# Reference: patent publication US20030153009A1, “Method for influencing kinase activity with AG879” (priority 2002, published 2003)
